Data published in patent US20240327506A1, “METHODS AND COMPOSITION FOR THE SELECTIVE ENHANCEMENT OF ADOPTIVE CELL THERAPY” (MaineHealth, priority 2023, published 2024).

Tests used:
Hut78 T-cells = assay: Transwell migration of Hut78 T-cells through collagen type-IV; type: cell-based, human
Procedure: FIGS. 4A-4H. […] Briefly, membranes from transwell migration chambers were coated with either native collagen type-IV or denatured collagen type-IV. T-cell variants were incubated with non-specific control peptide CP, or the RGDKGE (SEQ ID NO: 1)-containing collagen peptide (P2) and seed on the coated transwell membranes. T-cells were allowed to migrate in the presence or absence of SDF-1 added to the lower chamber for approximately 1.5 hours. Cell migration was quantified by counting the number of crystal violet stained cells that had migrated through to the underside of the coated membrane. FIG. 4A. Jurkat T-cell migration through denatured collagen type-IV in the presence of non-specific control peptide CP or RGDKGE (SEQ ID NO: 1)-containing collagen peptide P2 with SDF-1. FIG. 4B. Jurkat T-cell migration through native collagen type-IV in the presence of non-specific control peptide CP or RGDKGE (SEQ ID NO: 1)-containing collagen peptide P2 with SDF-1. FIG. 4C. Cem/C1 T-cell migration through denatured collagen type-IV in the presence of non-specific control peptide CP or RGDKGE (SEQ ID NO: 1)-containing collagen peptide P2 with SDF-1. FIG. 4D. Cem/C1 T-cell migration through native collagen type-IV in the presence of non-specific control peptide CP or RGDKGE (SEQ ID NO: 1)-containing collagen peptide P2. FIG. 4E. Hut78 T-cell migration through denatured collagen type-IV in the presence of non-specific control peptide CP or RGDKGE (SEQ ID NO: 1)-containing collagen peptide P2. FIG. 4F. Hut78 T-cell migration through native collagen type-IV in the presence of non-specific control peptide CP or RGDKGE (SEQ ID NO: 1)-containing collagen peptide P2. FIG. 4G Primary CD8+ T-cell migration through denatured collagen type-IV in the presence of non-specific control peptide CP or RGDKGE (SEQ ID NO: 1)-containing collagen peptide P2 with SDF-1. FIG. 4H. CD8+ T-cell migration through native collagen type-IV in the presence of non-specific control peptide CP or RGDKGE (SEQ ID NO: 1)-containing collagen peptide P2 with SDF-1. Data bars indicate the mean cell migration±S.E. *P<0.05.
Given our new observations, and the fact that many tumor types as well as immunosuppressive macrophages can secrete the small soluble RGDKGE (SEQ ID NO: 1) collagen peptide, we next sought to determine whether this soluble collagen peptide could impact T-cell migration through denatured collagen type-IV, a critical ECM component shown to be selectively enriched in tumor vessels. Briefly, membranes from transwell migration chambers were coated with either native collagen type-IV or denatured collagen type-IV. […] Cell migration was quantified following staining cells with crystal violet (6,8). […]

αvβ3 = αvβ3 (Homo sapiens, UniProt P05106+P06756); conditions: cited from earlier work
ID8-VEGF ovarian tumors = assay: T-cell levels in malignant ascites fluid of mice with ID8-VEGF ovarian tumors, flow cytometry; type: in vivo, C57BL/6 mice; conditions: compared to control antibody
Procedure: Data bars represent the mean percentage of CD8+ T-cells (+SE from 4 mice per condition) in the ascites fluid from each experimental group.
Mice (C57BL/6) were injected intraperitoneally with ID8-VEGF ovarian tumor cells. ID8-VEGF tumor cells were allowed to grow within the peritoneal cavity of mice for 4-weeks to allow formation of malignant ascites fluid and solid tumors. Beginning at 4 weeks, mice were injected subcutaneously with 100 μg per mouse 2× per week with non-specific control antibody (Ab Cont) or anti-HU177 antibody (Anti-HU177). At 12 weeks, mice were sacrificed and malignant ascites fluid was collected. The relative levels of CD4+ Treg-cells within the malignant ascites fluid was quantified by flow cytometry. Data bars represent the mean percentage of CD4+ Treg cells+SE from 4 mice per condition in the ascites fluid from each experimental group.
Given the surprising results that the Mab HU177 enhanced T-cell migration on denatured collagen type-IV, we next evaluated if administration of HU-177 antibody could increase the levels of CD8+ T-cells found in malignant ascites fluid. […] The relative levels of CD8+ T-cells within the malignant ascites fluid was quantified by flow cytometry, for 4 mice per experimental condition. […]

tumor = conditions: combination with anti-PDL-1 antibody; cited from earlier work
activated fibroblasts = conditions: cited from earlier work

αvβ3, sequence (P06756 31-889 limits assumed): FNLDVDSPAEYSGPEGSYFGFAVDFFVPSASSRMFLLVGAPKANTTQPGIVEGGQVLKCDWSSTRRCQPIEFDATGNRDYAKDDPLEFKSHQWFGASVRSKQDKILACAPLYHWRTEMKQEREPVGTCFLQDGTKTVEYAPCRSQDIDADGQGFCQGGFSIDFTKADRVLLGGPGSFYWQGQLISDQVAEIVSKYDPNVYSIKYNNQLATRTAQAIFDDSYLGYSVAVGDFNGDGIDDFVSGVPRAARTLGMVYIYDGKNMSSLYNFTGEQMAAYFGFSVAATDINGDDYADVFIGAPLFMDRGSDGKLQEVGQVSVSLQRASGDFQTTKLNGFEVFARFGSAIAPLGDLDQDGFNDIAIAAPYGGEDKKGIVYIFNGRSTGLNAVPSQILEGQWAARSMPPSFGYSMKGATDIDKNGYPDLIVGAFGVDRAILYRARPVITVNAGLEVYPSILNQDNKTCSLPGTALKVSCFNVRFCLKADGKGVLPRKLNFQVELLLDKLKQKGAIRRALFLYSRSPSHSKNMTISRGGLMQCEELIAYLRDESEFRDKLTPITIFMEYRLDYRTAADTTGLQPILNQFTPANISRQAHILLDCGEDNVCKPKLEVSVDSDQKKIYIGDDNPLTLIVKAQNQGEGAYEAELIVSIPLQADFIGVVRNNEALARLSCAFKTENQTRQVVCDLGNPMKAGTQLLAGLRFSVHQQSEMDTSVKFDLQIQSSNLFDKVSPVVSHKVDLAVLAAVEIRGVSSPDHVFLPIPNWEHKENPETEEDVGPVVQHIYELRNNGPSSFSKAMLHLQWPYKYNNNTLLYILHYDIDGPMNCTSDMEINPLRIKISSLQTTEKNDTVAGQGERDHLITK
αvβ3, sequence (P06756 891-1048 partner limits assumed): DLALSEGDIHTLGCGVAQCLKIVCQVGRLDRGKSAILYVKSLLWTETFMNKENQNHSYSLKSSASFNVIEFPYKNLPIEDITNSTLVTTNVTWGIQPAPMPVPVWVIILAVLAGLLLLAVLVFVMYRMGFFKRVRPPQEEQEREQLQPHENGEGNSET
αvβ3, sequence (P05106 27-788): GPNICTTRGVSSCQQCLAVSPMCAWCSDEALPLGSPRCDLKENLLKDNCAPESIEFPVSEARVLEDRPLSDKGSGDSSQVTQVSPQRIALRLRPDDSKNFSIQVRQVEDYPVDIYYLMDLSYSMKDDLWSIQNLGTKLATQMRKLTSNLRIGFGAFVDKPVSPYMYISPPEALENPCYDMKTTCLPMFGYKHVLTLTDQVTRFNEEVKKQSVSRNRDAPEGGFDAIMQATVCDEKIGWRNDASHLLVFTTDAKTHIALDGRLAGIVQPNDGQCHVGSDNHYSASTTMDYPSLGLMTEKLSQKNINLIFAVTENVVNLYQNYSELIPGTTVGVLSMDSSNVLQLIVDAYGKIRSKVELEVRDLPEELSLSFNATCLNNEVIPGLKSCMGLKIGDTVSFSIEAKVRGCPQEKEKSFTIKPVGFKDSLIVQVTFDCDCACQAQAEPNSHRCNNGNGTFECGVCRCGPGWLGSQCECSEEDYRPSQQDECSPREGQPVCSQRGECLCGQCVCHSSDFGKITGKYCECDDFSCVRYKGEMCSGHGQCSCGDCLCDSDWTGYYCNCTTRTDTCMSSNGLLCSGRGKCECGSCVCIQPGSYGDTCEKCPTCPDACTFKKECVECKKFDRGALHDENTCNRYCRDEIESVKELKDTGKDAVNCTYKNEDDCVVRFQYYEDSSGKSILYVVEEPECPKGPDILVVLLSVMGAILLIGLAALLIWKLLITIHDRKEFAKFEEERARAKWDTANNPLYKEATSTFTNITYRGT

Substance: CQGPGGAAGGC [CP, reference compound]
- Hut78 T-cell migration (Hut78 T-cells; native collagen type-IV, peptide, absence of SDF-1): nor the non-specific control peptide had any significant effect

Substance: KGDRGDAPG (CKGDRGDAPGC; Synthetic: Synthetic collagen RGD containing peptide P-1) [synthetic collagen RGD peptide, Colla1 742-750]
- binding to αvβ3 (αvβ3): bound

Substance: Mab HU177: antibody specifically directed to denatured forms of collagen, cryptic CPGFPGFC (SEQ ID NO: 16) epitope
- Hut78 T-cell migration (Hut78 T-cells; denatured collagen type-IV, fab fragments, compared to control antibody): significantly enhanced
- mean % Treg cells in the ascites fluid (ID8-VEGF ovarian tumors; 100 μg per mouse subcutaneously twice a week from week 4, ascites at 12 weeks): significant decrease
- mean percentage of CD8+ T-cells in the ascites fluid (ID8-VEGF ovarian tumors; 100 μg/mouse subcutaneously twice a week from week 4, ascites at 12 weeks): significant increase
- anti-tumor efficacy of an immune checkpoint inhibitor (anti-PDL-1) in vivo (tumor): enhance the therapeutic activity
- activated fibroblast migration and accumulation within tumors in vivo (activated fibroblasts): inhibits
